Test results reported in ChEMBL document CHEMBL1681676, “The design and synthesis of novel N-hydroxyformamide inhibitors of ADAM-TS4 for the treatment of osteoarthritis” (Bioorg Med Chem Lett, 2011).

Target: Matrix metalloproteinase-14 (Homo sapiens, UniProt P50281)
Experiment: Inhibition of recombinant human MMP14 assessed as substrate cleavage by measuring increase in fluorescence after 16 hrs

`Cc1cc(C(F)(F)F)ccc1CCC1CCN(S(=O)(=O)C[C@](C)(C[C@H](C)c2ncc(F)cn2)N(O)C=O)CC1` and `C[C@@H](C[C@@](C)(CS(=O)(=O)N1CCC(CCc2ccc(F)cc2C(F)(F)F)CC1)N(O)C=O)c1ncc(F)cn1` are within 1.5-fold of each other in IC50: 4.6 µM for the first, 3.6 µM for the second.

`Cc1cc(CCC2CCN(S(=O)(=O)C[C@](C)(C[C@H](C)c3ncc(F)cn3)N(O)C=O)CC2)c(C)cn1` and `Cc1cc(C)c(CCC2CCN(S(=O)(=O)C[C@](C)(C[C@H](C)c3ncc(F)cn3)N(O)C=O)CC2)cn1` cannot be ordered by IC50: 17 µM for the first, > 3.7 µM for the second.

First: Cc1ccc(C)c(CCC2CCN(S(=O)(=O)C[C@](C)(C[C@H](C)c3ncc(F)cn3)N(O)C=O)CC2)c1
Second: Cc1cnc(C)c(CCC2CCN(S(=O)(=O)C[C@](C)(C[C@H](C)c3ncc(F)cn3)N(O)C=O)CC2)c1
The IC50 of the first is lower: 4.2 µM for the first, > 8 µM for the second. The first is the more potent here.

Target: T1, Interstitial collagenase (Homo sapiens, UniProt P03956)
T1 sequence (P03956 whole entry): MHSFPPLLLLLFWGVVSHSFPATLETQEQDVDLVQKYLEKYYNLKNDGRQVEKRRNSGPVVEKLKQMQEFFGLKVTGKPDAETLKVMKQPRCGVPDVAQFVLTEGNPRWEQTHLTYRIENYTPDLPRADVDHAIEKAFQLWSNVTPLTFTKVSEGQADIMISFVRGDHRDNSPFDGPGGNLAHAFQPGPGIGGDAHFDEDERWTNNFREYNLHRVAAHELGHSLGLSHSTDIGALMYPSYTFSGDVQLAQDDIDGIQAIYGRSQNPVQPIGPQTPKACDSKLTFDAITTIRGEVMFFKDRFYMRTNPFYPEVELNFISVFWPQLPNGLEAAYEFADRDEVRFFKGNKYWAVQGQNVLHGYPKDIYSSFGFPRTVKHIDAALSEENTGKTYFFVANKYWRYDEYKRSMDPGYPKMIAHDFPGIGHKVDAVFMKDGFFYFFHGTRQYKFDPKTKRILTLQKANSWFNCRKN
Experiment: Inhibition of recombinant human MMP1 assessed as substrate cleavage by measuring increase in fluorescence after 16 hrs

Going from `Cc1cc(C(F)(F)F)ccc1CCC1CCN(S(=O)(=O)C[C@](C)(C[C@H](C)c2ncc(F)cn2)N(O)C=O)CC1` to `C[C@@H](C[C@@](C)(CS(=O)(=O)N1CCC(CCc2ccc(F)cc2C(F)(F)F)CC1)N(O)C=O)c1ncc(F)cn1`, the IC50 falls from > 10 µM to 9.7 µM. The second is the more potent here.

`Cc1cc(CCC2CCN(S(=O)(=O)C[C@](C)(C[C@H](C)c3ncc(F)cn3)N(O)C=O)CC2)c(C)cn1` and `Cc1cc(C)c(CCC2CCN(S(=O)(=O)C[C@](C)(C[C@H](C)c3ncc(F)cn3)N(O)C=O)CC2)cn1` cannot be ordered by IC50: > 100 µM for the first, > 100 µM for the second.

`Cc1ccc(C)c(CCC2CCN(S(=O)(=O)C[C@](C)(C[C@H](C)c3ncc(F)cn3)N(O)C=O)CC2)c1` and `Cc1cnc(C)c(CCC2CCN(S(=O)(=O)C[C@](C)(C[C@H](C)c3ncc(F)cn3)N(O)C=O)CC2)c1` cannot be ordered by IC50: > 10 µM for the first, 55 µM for the second.

Target: T2, A disintegrin and metalloproteinase with thrombospondin motifs 4 (Homo sapiens, UniProt O75173)
T2 sequence (O75173 whole entry): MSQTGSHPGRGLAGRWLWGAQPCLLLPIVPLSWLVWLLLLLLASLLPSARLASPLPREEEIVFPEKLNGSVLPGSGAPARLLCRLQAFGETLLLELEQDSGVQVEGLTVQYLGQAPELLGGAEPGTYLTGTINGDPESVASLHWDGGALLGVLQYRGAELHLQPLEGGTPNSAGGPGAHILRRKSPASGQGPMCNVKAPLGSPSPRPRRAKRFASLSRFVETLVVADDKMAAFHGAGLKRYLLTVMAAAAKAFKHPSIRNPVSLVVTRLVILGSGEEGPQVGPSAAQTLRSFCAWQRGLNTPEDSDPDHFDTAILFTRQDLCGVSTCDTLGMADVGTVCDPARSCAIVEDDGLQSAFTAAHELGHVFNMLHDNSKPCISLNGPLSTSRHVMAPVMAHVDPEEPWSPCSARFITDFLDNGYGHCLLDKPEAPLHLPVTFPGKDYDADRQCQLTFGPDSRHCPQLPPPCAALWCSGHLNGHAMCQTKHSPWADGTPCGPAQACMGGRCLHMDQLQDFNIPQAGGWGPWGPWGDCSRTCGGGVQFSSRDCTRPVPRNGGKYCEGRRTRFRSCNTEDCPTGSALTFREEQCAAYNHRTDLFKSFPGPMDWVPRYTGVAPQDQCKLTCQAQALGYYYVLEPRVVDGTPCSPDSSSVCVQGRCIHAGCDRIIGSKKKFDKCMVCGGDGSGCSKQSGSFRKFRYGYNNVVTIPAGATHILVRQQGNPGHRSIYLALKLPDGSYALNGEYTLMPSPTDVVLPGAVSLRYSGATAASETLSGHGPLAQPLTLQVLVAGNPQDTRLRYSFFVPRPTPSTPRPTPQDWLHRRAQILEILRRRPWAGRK
Experiment: Inhibition of ADAMTS-4 assessed as substrate cleavage by measuring increase in fluorescence after 16 hrs

In order of rising IC50:
1. Cc1cc(CCC2CCN(S(=O)(=O)C[C@](C)(C[C@H](C)c3ncc(F)cn3)N(O)C=O)CC2)c(C)cn1  0.43 nM
2. Cc1ccc(C)c(CCC2CCN(S(=O)(=O)C[C@](C)(C[C@H](C)c3ncc(F)cn3)N(O)C=O)CC2)c1  0.48 nM
3. Cc1cc(C(F)(F)F)ccc1CCC1CCN(S(=O)(=O)C[C@](C)(C[C@H](C)c2ncc(F)cn2)N(O)C=O)CC1  0.49 nM
4. C[C@@H](C[C@@](C)(CS(=O)(=O)N1CCC(CCc2ccc(F)cc2C(F)(F)F)CC1)N(O)C=O)c1ncc(F)cn1  0.52 nM
5. Cc1cc(C)c(CCC2CCN(S(=O)(=O)C[C@](C)(C[C@H](C)c3ncc(F)cn3)N(O)C=O)CC2)cn1  0.68 nM
6. Cc1cnc(C)c(CCC2CCN(S(=O)(=O)C[C@](C)(C[C@H](C)c3ncc(F)cn3)N(O)C=O)CC2)c1  1.9 nM

Target: Disintegrin and metalloproteinase domain-containing protein 17 (Homo sapiens, UniProt P78536)
Experiment: Inhibition of TACE assessed as substrate cleavage by measuring increase in fluorescence after 16 hrs

Disintegrin and metalloproteinase domain-containing protein 17, sequence (P78536 whole entry, the tested form may be a part): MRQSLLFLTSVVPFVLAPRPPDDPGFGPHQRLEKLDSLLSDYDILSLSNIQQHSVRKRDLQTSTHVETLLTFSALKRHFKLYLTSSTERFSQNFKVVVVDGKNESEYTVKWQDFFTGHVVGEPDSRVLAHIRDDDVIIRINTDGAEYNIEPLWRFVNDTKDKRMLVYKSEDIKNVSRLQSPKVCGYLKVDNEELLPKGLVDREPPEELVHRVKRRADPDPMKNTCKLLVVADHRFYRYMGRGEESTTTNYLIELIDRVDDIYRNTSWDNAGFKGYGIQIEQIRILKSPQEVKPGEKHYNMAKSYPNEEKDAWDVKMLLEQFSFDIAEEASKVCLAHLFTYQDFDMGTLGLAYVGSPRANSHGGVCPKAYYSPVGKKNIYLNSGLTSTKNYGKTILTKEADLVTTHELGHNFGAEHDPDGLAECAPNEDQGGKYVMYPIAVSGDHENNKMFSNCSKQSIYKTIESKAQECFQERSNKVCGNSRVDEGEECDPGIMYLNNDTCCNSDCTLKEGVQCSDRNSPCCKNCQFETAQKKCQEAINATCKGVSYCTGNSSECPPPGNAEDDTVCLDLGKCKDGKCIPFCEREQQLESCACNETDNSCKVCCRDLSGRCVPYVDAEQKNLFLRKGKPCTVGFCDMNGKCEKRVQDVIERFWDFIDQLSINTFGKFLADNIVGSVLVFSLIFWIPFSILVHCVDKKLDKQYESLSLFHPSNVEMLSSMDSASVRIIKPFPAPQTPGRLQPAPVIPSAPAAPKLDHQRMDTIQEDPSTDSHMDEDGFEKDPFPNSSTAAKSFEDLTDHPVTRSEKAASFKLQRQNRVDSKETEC

In order of rising IC50:
1. C[C@@H](C[C@@](C)(CS(=O)(=O)N1CCC(CCc2ccc(F)cc2C(F)(F)F)CC1)N(O)C=O)c1ncc(F)cn1  19 nM
2. Cc1ccc(C)c(CCC2CCN(S(=O)(=O)C[C@](C)(C[C@H](C)c3ncc(F)cn3)N(O)C=O)CC2)c1  22 nM
3. Cc1cc(CCC2CCN(S(=O)(=O)C[C@](C)(C[C@H](C)c3ncc(F)cn3)N(O)C=O)CC2)c(C)cn1  230 nM
4. Cc1cc(C(F)(F)F)ccc1CCC1CCN(S(=O)(=O)C[C@](C)(C[C@H](C)c2ncc(F)cn2)N(O)C=O)CC1  420 nM
5. Cc1cnc(C)c(CCC2CCN(S(=O)(=O)C[C@](C)(C[C@H](C)c3ncc(F)cn3)N(O)C=O)CC2)c1  1400 nM
6. Cc1cc(C)c(CCC2CCN(S(=O)(=O)C[C@](C)(C[C@H](C)c3ncc(F)cn3)N(O)C=O)CC2)cn1  3000 nM

Target: Collagenase 3 (Homo sapiens, UniProt P45452)
Experiment: Inhibition of recombinant human MMP13 assessed as substrate cleavage by measuring increase in fluorescence after 16 hrs

First: Cc1cc(C(F)(F)F)ccc1CCC1CCN(S(=O)(=O)C[C@](C)(C[C@H](C)c2ncc(F)cn2)N(O)C=O)CC1
Second: C[C@@H](C[C@@](C)(CS(=O)(=O)N1CCC(CCc2ccc(F)cc2C(F)(F)F)CC1)N(O)C=O)c1ncc(F)cn1
The IC50 of the first is 7-fold lower: 2.3 µM for the first, 16 µM for the second. The first is the more potent here.

`Cc1cc(CCC2CCN(S(=O)(=O)C[C@](C)(C[C@H](C)c3ncc(F)cn3)N(O)C=O)CC2)c(C)cn1` and `Cc1cc(C)c(CCC2CCN(S(=O)(=O)C[C@](C)(C[C@H](C)c3ncc(F)cn3)N(O)C=O)CC2)cn1` cannot be ordered by IC50: 14 µM for the first, > 4.5 µM for the second.

`Cc1ccc(C)c(CCC2CCN(S(=O)(=O)C[C@](C)(C[C@H](C)c3ncc(F)cn3)N(O)C=O)CC2)c1` and `Cc1cnc(C)c(CCC2CCN(S(=O)(=O)C[C@](C)(C[C@H](C)c3ncc(F)cn3)N(O)C=O)CC2)c1` are within 1.5-fold of each other in IC50: 23 µM for the first, 27 µM for the second.

Target: 72 kDa type IV collagenase (Homo sapiens, UniProt P08253)
Experiment: Inhibition of recombinant human MMP2 assessed as substrate cleavage by measuring increase in fluorescence after 16 hrs

72 kDa type IV collagenase, sequence (P08253 whole entry): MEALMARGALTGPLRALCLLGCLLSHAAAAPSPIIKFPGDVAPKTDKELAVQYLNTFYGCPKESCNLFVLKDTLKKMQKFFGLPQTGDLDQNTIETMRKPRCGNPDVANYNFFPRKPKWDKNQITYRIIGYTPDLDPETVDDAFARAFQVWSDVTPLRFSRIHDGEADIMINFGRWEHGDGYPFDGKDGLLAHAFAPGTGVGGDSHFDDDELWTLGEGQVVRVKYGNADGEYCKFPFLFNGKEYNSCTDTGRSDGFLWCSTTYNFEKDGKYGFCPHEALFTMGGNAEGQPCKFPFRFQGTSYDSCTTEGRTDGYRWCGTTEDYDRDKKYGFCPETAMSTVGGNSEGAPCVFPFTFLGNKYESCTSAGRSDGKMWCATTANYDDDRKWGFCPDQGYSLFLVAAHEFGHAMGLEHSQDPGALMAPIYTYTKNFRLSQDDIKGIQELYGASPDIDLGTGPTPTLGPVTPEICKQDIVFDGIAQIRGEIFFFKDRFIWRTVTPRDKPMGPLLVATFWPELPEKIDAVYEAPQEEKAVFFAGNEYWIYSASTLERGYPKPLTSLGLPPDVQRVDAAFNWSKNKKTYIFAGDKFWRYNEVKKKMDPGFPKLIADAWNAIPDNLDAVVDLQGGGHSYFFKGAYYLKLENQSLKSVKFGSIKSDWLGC

In order of falling IC50:
1. Cc1cnc(C)c(CCC2CCN(S(=O)(=O)C[C@](C)(C[C@H](C)c3ncc(F)cn3)N(O)C=O)CC2)c1  35 µM
2. Cc1cc(CCC2CCN(S(=O)(=O)C[C@](C)(C[C@H](C)c3ncc(F)cn3)N(O)C=O)CC2)c(C)cn1  12 µM
3. Cc1ccc(C)c(CCC2CCN(S(=O)(=O)C[C@](C)(C[C@H](C)c3ncc(F)cn3)N(O)C=O)CC2)c1  4.2 µM
4. Cc1cc(C)c(CCC2CCN(S(=O)(=O)C[C@](C)(C[C@H](C)c3ncc(F)cn3)N(O)C=O)CC2)cn1  2.2 µM
5. C[C@@H](C[C@@](C)(CS(=O)(=O)N1CCC(CCc2ccc(F)cc2C(F)(F)F)CC1)N(O)C=O)c1ncc(F)cn1  1.9 µM
6. Cc1cc(C(F)(F)F)ccc1CCC1CCN(S(=O)(=O)C[C@](C)(C[C@H](C)c2ncc(F)cn2)N(O)C=O)CC1  0.35 µM
